Assay results taken from patent US20160106708A1, “USE OF ANTIOXIDANTS FOR THE TREATMENT OF COGNITIVE AND BEHAVIOURAL DISORDERS IN INDIVIDUALS WITH FRAGILE X SYNDROME” (Servicio Andaluz de Salud, priority 2010, published 2016).

Tests used:
[1] = system: patients with Fragile X syndrome; details: cited from earlier work; for Efficacy on symptoms in patients with Fragile X Syndrome: published trials
FMR1-KO mice [2] = assay: Oxidised glutathione (GSSG, % of GSH) in brain extract; type: in vivo, mouse; details: vs saline and naive controls
Excerpt: FIG. 6. Percentage of GSSG with respect to GSH in mouse brain extract. FMR1-KO (n=8): black bars and WT (n=9): white bars. *p<0.05 FMR1-KO vs. WT. # p<0.05 FMR1-KO vs. FMR1-KO. † p<0.05 WT vs. WT.

FMR1-KO mice [3] = assay: Level of lipid peroxidation (TBARS) in cerebral membranes; type: in vivo, mouse; details: FMR1-KO vs WT under treatment; tianeptine: both genotypes vs saline control
Excerpt: FIG. 4. Concentration of TBARS in mouse cerebral membranes (nmol/mg protein).

FMR1-KO mice [4] = assay: Open field, locomotive activity (hyperactivity); type: in vivo, mouse; details: chronic treatment, 15-minute period, treated vs FMR1-KO without treatment, saline control and Tianeptine (tianeptine group: FMR1-KO vs WT)
Excerpt: FIG. 1. Open-field distance travelled by the mice in a 15-minute period of time for the different treatments.
In all the groups of WT mice, locomotion was maintained without significant variations, about 4000 cm of distance travelled (FIG. 1); this test was used to check the mice's hyperactivity.

Fmr1-KO mouse = details: chronic treatment; cited from earlier work
FMR1-KO mice [5] = assay: Measurement of corticosterone in serum; type: in vivo, mouse; details: FMR1-KO mice vs WT controls under the same treatment
Excerpt: FIG. 3. Concentration of corticosterone in mouse serum (ng/ml).

FMR1-KO mice [6] = assay: Reduced glutathione (GSH) in brain extract; type: in vivo, mouse; details: vs saline control
Excerpt: FIG. 5. Concentration of GSH in mouse brain extract (μmol/g protein). FMR1-KO (n=8): black bars and WT (n=9): white bars. *p<0.05 FMR1-KO vs. WT. # p<0.05 FMR1-KO vs. FMR1-KO. † p<0.05 WT vs. WT.

FMR1-KO mice [7] = assay: Raised cross-shaped maze (anxiety); type: in vivo, mouse; details: chronic treatment, 5-minute period, treated vs FMR1-KO without treatment, saline control and Tianeptine (Tianeptine group: FMR1-KO vs WT)
Excerpt: FIG. 2. Percentage permanence time in the open arm of the raised cross-shaped maze in a 5-minute period of time for the different treatments.
This test is used to determine the anxiety of the animal model, under baseline and treated conditions.

[8] = system: transgenic mouse model for Alzheimer's disease; details: cited from earlier work
[9] = system: patients with Alzheimer's disease; details: cited from earlier work
[10] = system: cytotoxicity induced by L-buthionine-sulfoximine (BSO); details: BSO causes decrease in intracellular glutathione; cited from earlier work
[11] = human; cited from earlier work
children with Autism = details: 18 children with Autism; cited from earlier work

In the case of `COc1cc2c(cc1OC)C(=O)C(CC1CCN(Cc3ccccc3)CC1)C2` (centres unmarked) [donezepil], the “Efficacy on symptoms in patients with Fragile X Syndrome” value (“Efficacy on symptoms in patients” for short) [1] is listed as “significantly improves cognitive and behavioural functions”.
In the case of `COc1ccc2[nH]cc(CCNC(C)=O)c2c1` [Melatonin], the “Percentage of GSSG with respect to GSH in brain extract” value (FMR1-KO mice [2]) is reported as “normalised the values of GSSG”, the “Levels of TBARS in cerebral membranes” value (FMR1-KO mice [3]) is reported as “normalises the levels of TBARS” and the “Open-field total distance travelled” value (FMR1-KO mice [4]) is reported as “lower (p<0.05)”. For the same compound, the “Effect on parameters characteristic of the syndrome (hyperactivity, anxiety disorder, cognitive deficit)” value (Fmr1-KO mouse) was “normalising several parameters characteristic of the syndrome”, the “Efficacy on symptoms in patients” value [1] was “reduce the sleep problems” and the “Concentration of corticosterone in serum” value (FMR1-KO mice [5]) was “maintained the same levels of corticosterone as compared to the WT controls”. The “GSH in brain extract” value (FMR1-KO mice [6]) was “higher values of GSH” and the “Percentage permanence time in the open arm of the raised cross-shaped maze” value (FMR1-KO mice [7]) was “lower (p<0.05)”.
For `CC12CC3CC(C)(C1)CC(N)(C3)C2` [Nemantine], the “Patients showing symptoms of improvement” value ([1]; of 6 affected patients) is given as 4.
In the case of `Cc1c(C)c2c(c(C)c1O)CC[C@@](C)(CCC[C@H](C)CCC[C@H](C)CCCC(C)C)O2` [Vitamin E, alpha-Tocopherol], the “Percentage of GSSG with respect to GSH in brain extract” value (FMR1-KO mice [2]) is listed as “normalised the values of GSSG”, the “Lipid peroxidation and amyloid deposition” value [8] is listed as “reduced lipid peroxidation and amyloid deposition” and the “Levels of TBARS in cerebral membranes” value (FMR1-KO mice [3]) is listed as “normalises the levels of TBARS”. The “Open-field total distance travelled” value (FMR1-KO mice [4]) was “lower (p<0.05)”, the “Effect on parameters characteristic of the syndrome (hyperactivity, anxiety disorder, cognitive deficit)” value (Fmr1-KO mouse) was “normalising several parameters characteristic of the syndrome” and the “Effect on mental deterioration” value [9] was “capable of delaying mental deterioration”. The “Concentration of corticosterone in serum” value (FMR1-KO mice [5]) was “maintained the same levels of corticosterone as compared to the WT controls”, the “GSH in brain extract” value (FMR1-KO mice [6]) was “higher values of GSH” and the “Percentage permanence time in the open arm of the raised cross-shaped maze” value (FMR1-KO mice [7]) was “lower (p<0.05)”. For the same compound, the “Protection against BSO-induced cytotoxicity” value [10] was “significant protection”.
With `CN1c2ccccc2C(NCCCCCCC(=O)O)c2ccc(Cl)cc2S1(=O)=O` (centres unmarked) [Tianeptine] the “Open-field total distance travelled” value (FMR1-KO mice [4]) was “greater total travelled distance”.
For `COC(=O)N1CC[C@@H]2[C@H]1CCC[C@@]2(O)C#Cc1cccc(C)c1` [AFQ056], the “Efficacy on symptoms in patients” value [1] is given as “demonstrates its effectiveness on the behavioural and learning problems”.
For `CN1CC(=O)NC1=NC(=O)Nc1cccc(Cl)c1` [Fenoban], the “Efficacy on symptoms in patients” value [1] is listed as “efficacy”.
In the case of `CC(=O)O[C@H](CC(=O)[O-])C[N+](C)(C)C` [L-acetylcarnitine], the “Efficacy on symptoms in patients” value [1] is given as “efficacy in reducing hyperactivity and improving social relations”.
For `O=C1O[C@H]([C@@H](O)CO)C(O)=C1O` [Vitamin C, Ascorbic Acid], the Half-life [11] is listed as 16 days and the “Effect on symptoms of Autism” value (children with Autism) is listed as “significant decrease of some symptoms”.
